# Laboratory results: US20090068258A1, “Caveolin-mimetic peptide for prevention and treatment of pulmonary hypertension and right ventricular hypertrophy” (priority 2007, published 2009)
# Residues, ends and D or L forms follow the SMILES beside them. *: point of attachment. Biotin = O=C1N[C@H]2[C@H](CS[C@H]2CCCCC(=O)*)N1
# How the values were obtained:
# [1] = test system: Cav-1; test: Dual-label immunofluorescence analysis of Cav-1 in pulmonary arteries of MCT rats; assay type: in vivo, Sprague-Dawley rats
# Method: (§1) Male Sprague-Dawley rats (Charles River, Wilmington, Mass.) weighing between 250-300 g received a single intraperitoneal (ip) injection of either 0.5 ml 0.9% NaCl or 0.5 ml 60 mg/kg MCT. Thirty minutes later, rats were randomly assigned to receive a daily ip injection of either 0.5 ml 0.9% NaCl, 0.5 ml AP (2.5 mg/kg/d) or 0.5 ml AP-Cav (2.5 mg/kg/d) for 2 weeks.
# (§2) Immunofluorescence Analysis. As mentioned above, the left lung of Control (n=17), Control+AP-Cav (n=10), MCT (n=25), MCT+AP (n=19), and MCT+AP-Cav (n=24) rats was dissected and perfused-fixed. Transverse sections were obtained and embedded with paraffin. Sections of 10 μm were cut and stained with hematoxylin and eosin (H&E).
# (§3) Paraffin from 10 μm-thick sections was removed by immersion in xylene. These sections were then rehydrated with graded alcohol to water and blocked overnight. The sections were subsequently incubated with a given primary antibody for three hours. FITC- and TRITC-conjugated secondary antibodies were then added to the sections after a 15 min wash in PBS. After 1 hr of incubation with the secondary antibodies, the sections were washed in PBS and mounted using Prolong Gold antifade reagent (Molecular Probes, Carlsbad, Calif.).
# [2] = test system: Cav-1; test: Immunoblot analysis of lung Cav-1 protein levels in MCT rats; assay type: in vivo, Sprague-Dawley rats
# Method: as §1
# (§4) Immunoblot Analysis. Lung samples from Control (n=17), Control+AP-Cav (n=10), MCT (n=25), MCT+AP (n=19), and MCT+AP-Cav (n=24) groups were homogenized in a RIPA lysis buffer containing protease and phosphatase inhibitors. Proteins were then separated by SDS-PAGE (12% acrylamide) and transferred to nitrocellulose membranes. The membranes were placed in blocking solution for 30 min. Afterwards, the membranes were washed and incubated with a given primary antibody for 1 hour (Cav-1, -2 and β-actin) or 3 hours (eNOS, STAT3, PY-STAT3, cyclin D1, and cyclin D3). […] Western blots for Cav-1, Cav-2, eNOS, PY-STAT3, cyclin D1 and cyclin D3 were subsequently quantitated using the NIH Image J software (using the mean gray value for each band).
# (§5) Statistical Analysis. Hemodynamic and morphometric variables as well as the mean gray value of each western blot are expressed as mean±S.E.M. Differences between the 5 groups were evaluated by ANOVA, followed by Tukey's multiple-group comparisons test. […]
# [3] = test system: PY-STAT3; test: Immunoblot analysis of lung PY-STAT3 in MCT rats; assay type: in vivo, Sprague-Dawley rats
# Method: as §1, §4, §5
# [4] = test system: rats with MCT-induced PH; test: Hemodynamic and morphometric variables in rats with MCT-induced PH; assay type: in vivo, Sprague-Dawley rats; details: MCT 60 mg/kg ip rats, peptide 2.5 mg/kg/d ip for 2 weeks; for RV/LV+septum weight ratio: Control rats 25.3±0.5, MCT rats 31.1±0.6; for RV systolic pressures: Control rats 26.0±0.9, MCT rats 40.2±1.5; for BW (body weight) / CVP (central venous pressure) / Dry lung weight/BW / Dry/wet lung weight / HR (heart rate) / LV(+)dP/dt / LV(−)dP/dt / LV/BW / LVEDP (LV-end diastolic pressure) / MAP (mean arterial pressure) / RV(+)dP/dt / RV(−)dP/dt / RV/BW / RVEDP (RV-end diastolic pressure) / Wet lung weight/BW: mean±S.E.M.
# Method: as §1
# (§6) At two weeks, rats were anesthetized with xylazine (10 mg/kg)-ketamine (50 mg/kg) followed by 2000 U heparin (Sigma-Aldrich). The right jugular vein and carotid artery were then isolated and incised, and millar catheters (SPR-249, Millar Instruments, Houston, Tex.) were advanced into the right and left ventricles (RV and LV) for hemodynamic measurements. The RV and LV pressures were recorded with the Ponemah P3-Data acquisition system (LDS Test and Measurement, Middleton, Wis.).
# (§7) Afterwards, the lower lobe of the right lung and the heart were dissected and weighed to respectively determine pulmonary edema and RV hypertrophy, as previously described^11. The remaining lobes of the right lung were submerged in liquid nitrogen and frozen at −80° C. The left pulmonary artery was then cannulated and perfused with 4% paraformaldehyde (PFA) for 2 min. This was followed by perfusion of the airways with 4% PFA for 2 min. The left lung was then immersed in 4% PFA for 24 hours.
# (§8) Statistical Analysis. Hemodynamic and morphometric variables as well as the mean gray value of each western blot are expressed as mean±S.E.M. Differences between the 5 groups were evaluated by ANOVA, followed by Tukey's multiple-group comparisons test. Statistical significance was assumed at p<0.05.
# [5] = test system: Cav-2; test: Dual-label immunofluorescence analysis of Cav-2 in pulmonary arteries of MCT rats; assay type: in vivo, Sprague-Dawley rats
# Method: as §1, §2, §3
# [6] = test system: cyclin D3; test: Immunoblot analysis of lung cyclin D3 in MCT rats; assay type: in vivo, Sprague-Dawley rats
# Method: as §1, §4, §5
# [7] = test system: cyclin D1; test: Immunoblot analysis of lung cyclin D1 in MCT rats; assay type: in vivo, Sprague-Dawley rats
# Method: as §1, §4, §5
# [8] = test system: Cav-2; test: Immunoblot analysis of lung Cav-2 protein levels in MCT rats; assay type: in vivo, Sprague-Dawley rats
# Method: as §1, §4, §5
# [9] = test system: pulmonary arteries of MCT rats; test: Lung vascular morphometry (percent medial wall thickness) in MCT rats; assay type: in vivo, Sprague-Dawley rats
# Method: as §1
# (§9) Lung Vascular Morphometry. H&E sections of the left lung (n=10 for each groups) were microscopically assessed for the medial wall thickness of pulmonary arteries. Measurements of the luminal diameter and the medial thickness on either side were obtained using the Image J software. Measurements were made on 30 muscular arteries (<50 μm, 51-100 μm, and 100-150 μm of external diameter) per lung section. The medial wall thickness was then related to the external diameter and expressed as percent wall thickness, as previously described^20.
# as §8
# [10] = test system: mice; details: in vivo delivery, previous reports (refs 17;18); cited from earlier work
# [11] = test system: pulmonary arteries of Control rats; test: Lung vascular morphometry (percent medial wall thickness) in Control rats; assay type: in vivo, Sprague-Dawley rats; details: data not shown
# Method: as §1, §9, §8
# [12] = test system: Control rats; test: Hemodynamic and morphometric variables in Control rats (0.9% NaCl instead of MCT); assay type: in vivo, Sprague-Dawley rats
# Method: as §1, §6, §7, §8
# [13] = Control rats (no MCT), peptide 2.5 mg/kg/d ip for 2 weeks, mean±S.E.M.
compound,measurement,setting,value
"CC[C@H](C)[C@H](NC(=O)[C@H](CCCCN)NC(=O)[C@@H]1CCCN1C(=O)[C@H](CCC(N)=O)NC(=O)[C@H](CCCNC(=N)N)NC(=O)CCCC[C@@H]1SC[C@@H]2NC(=O)N[C@@H]21)C(=O)N[C@@H](Cc1c[nH]c2ccccc12)C(=O)N[C@@H](Cc1ccccc1)C(=O)N1CCC[C@H]1C(=O)N[C@@H](CC(N)=O)C(=O)N[C@@H](CCCNC(=N)N)C(=O)N[C@@H](CCCNC(=N)N)C(=O)N[C@@H](CCCCN)C(=O)N1CCC[C@H]1C(=O)N[C@@H](Cc1c[nH]c2ccccc12)C(=O)N[C@@H](CCCCN)C(=O)N[C@@H](CCCCN)C(=O)O [AP, (biotin)-RQPKIWFPNRRKPWKK (SEQ ID NO:1)—(OH)] (Biotin-RQPKIWFPNRRKPWKK-OH)",Cav-1 expression in pulmonary arteries,[1],marked reductions
same,decrease of Cav-1 protein levels in the lungs,[2]; vs Control rats,~3 fold
same,increased levels of PY-STAT3 in the lungs,[3]; vs Control rats,~5 fold
same,RV/LV+septum weight ratio,[4],30.6±0.6%
same,RV systolic pressures,[4],39.6±1.5 mmHg
same,BW (body weight),[4],335 ± 7 g
same,CVP (central venous pressure),[4],5.1 ± 0.3 mmHg
same,Dry lung weight/BW,[4],0.033 ± 0.001 %
same,Dry/wet lung weight,[4],19.7 ± 0.4%
same,HR (heart rate),[4],274 ± 12 beats/min
same,LV(+)dP/dt,[4],6268 ± 339 mmHg/s
same,LV(−)dP/dt,[4],4319 ± 286 mmHg/s
same,LV/BW,[4],0.200 ± 0.004%
same,LVEDP (LV-end diastolic pressure),[4],2.7 ± 0.3 mmHg
same,MAP (mean arterial pressure),[4],85.3 ± 4.4 mmHg
same,RV(+)dP/dt,[4],1931 ± 78 mmHg/s
same,RV(−)dP/dt,[4],1395 ± 72 mmHg/s
same,RV/BW,[4],0.061 ± 0.002 %
same,RVEDP (RV-end diastolic pressure),[4],5.1 ± 0.3 mmHg
same,Wet lung weight/BW,[4],0.170 ± 0.007 %
same,Cav-2 expression in pulmonary arteries,[5],marked reductions
same,increase in cyclin D3 protein levels in the lungs,[6]; vs Control rats,~4 fold
same,increase in cyclin D1 protein levels in the lungs,[7]; vs Control rats,~4 fold
same,decrease of Cav-2 protein levels in the lungs,[8]; vs Control rats,~2 fold
same,increased percent medial wall thickness of pulmonary arteries,"[9]; arteries <50 μm, 51-100 μm, 100-150 μm, vs Control rats",2-3 fold
(biotin)-RQPKTWFPNRRKPWKK-DGIWKASFTTFTVTKYWFYR (SEQ ID NO:10)—(OH) [AP-Cav],Cav-1 expression in pulmonary arteries,[1],prevented
same,pulmonary Cav-1 protein levels (effect in words),[2]; 2.5 mg/kg/d ip for 2 weeks,significantly prevented the reduction
same,STAT3 signaling cascade (PY-STAT3) in the lungs (effect in words),[3]; 2.5 mg/kg/d ip for 2 weeks,prevented the hyper-activation
same,RV/LV+septum weight ratio,[4],24.6±0.5%
same,RV systolic pressures,[4],30.1±1.3 mmHg
same,BW (body weight),[4],371 ± 9 g
same,CVP (central venous pressure),[4],3.2 ± 0.2 mmHg
same,Dry lung weight/BW,[4],0.028 ± 0.001 %
same,Dry/wet lung weight,[4],20.7 ± 0.3%
same,HR (heart rate),[4],261 ± 12 beats/min
same,LV(+)dP/dt,[4],5766 ± 335 mmHg/s
same,LV(−)dP/dt,[4],3891 ± 309 mmHg/s
same,LV/BW,[4],0.200 ± 0.003%
same,LVEDP (LV-end diastolic pressure),[4],2.7 ± 0.3 mmHg
same,MAP (mean arterial pressure),[4],82.6 ± 2.9 mmHg
same,RV(+)dP/dt,[4],1489 ± 18 mmHg/s
same,RV(−)dP/dt,[4],1107 ± 61 mmHg/s
same,RV/BW,[4],0.049 ± 0.001 %
same,RVEDP (RV-end diastolic pressure),[4],3.0 ± 0.2 mmHg
same,Wet lung weight/BW,[4],0.132 ± 0.004 %
same,Cav-2 expression in pulmonary arteries,[5],prevented
same,pulmonary cyclin D3 expression (effect in words),[6]; 2.5 mg/kg/d ip for 2 weeks,prevented the upregulation
same,"systemic blood pressure, blood flow, and heart rate",[10],had no effect
same,percent medial wall thickness of pulmonary arteries (effect in words),[11],had no effect
same,pulmonary cyclin D1 expression (effect in words),[7]; 2.5 mg/kg/d ip for 2 weeks,prevented the upregulation
same,BW (body weight),[12]; [13],407 ± 12 g
same,CVP (central venous pressure),[12]; [13],3.1 ± 0.1 mmHg
same,Dry lung weight/BW,[12]; [13],0.019 ± 0.000%
same,Dry/wet lung weight,[12]; [13],20.8 ± 0.1%
same,HR (heart rate),[12]; [13],270 ± 6 beats/min
same,LV(+)dP/dt,[12]; [13],6216 ± 446 mmHg/s
same,LV(−)dP/dt,[12]; [13],4614 ± 320 mmHg/s
same,LV/BW,[12]; [13],0.194 ± 0.005%
same,LVEDP (LV-end diastolic pressure),[12]; [13],3.0 ± 0.3 mmHg
same,MAP (mean arterial pressure),[12]; [13],79.4 ± 3.4 mmHg
same,RV(+)dP/dt,[12]; [13],1435 ± 60 mmHg/s
same,RV(−)dP/dt,[12]; [13],988 ± 46 mmHg/s
same,RV/BW,[12]; [13],0.050 ± 0.001%
same,RVEDP (RV-end diastolic pressure),[12]; [13],2.8 ± 0.2 mmHg
same,Wet lung weight/BW,[12]; [13],0.091 ± 0.001%
same,effect on hemodynamic and morphometric variables,"[12]; Control rats, compared to Control group receiving 0.9% NaCl alone",did not affect
same,pulmonary Cav-2 protein levels (effect in words),[8]; 2.5 mg/kg/d ip for 2 weeks,significantly prevented the reduction
same,percent medial wall thickness of pulmonary arteries (effect in words),[9]; 2.5 mg/kg/d ip for 2 weeks,significantly reduced
